Measured values as given in publication PMC10127268, “Rational Design of Phosphorylation-Responsive Coiled Coil-Peptide Assemblies” (ACS Synthetic Biology, 2023).
Like-named read-outs stand apart in the source and are kept apart here.

Assays:
[1] = CD, PBS pH 7.4, 10 μM individual peptide; ref 5 (Edgell et al., 2020); cited from earlier work
Experimental: page 28: Table S4. Biophysical parameters for switchable peptides and complexes. Peptide(s) Helicity at 5 °C (%)a TM (°C) CC-Tet-A 37b < 20b CC-Tet-B 37b < 20b CC-Tet-A-S14 23 < 20 CC-Tet-A-S7 29 < 20 CC-Tet-A-S21 25 < 20 CC-Tet-B-RRXS14 26 < 20 CC-Tet-A + B 87b > 95b CC-Tet-A-S14 + B-RRXS14 67 62 CC-Tet-A-S7 + B-RRXS14 70 66 CC-Tet-A-S21 + B-RRXS14 81 72 apCC-Tet-A-S10 48 < 20 apCC-Tet-A-S17 42 < 20 apCC-Tet-B-S20 40 < 20 apCC-Tet-B-RRXS13 39 < 20 apCC-Tet-B-RRXS20 38 < 20 apCC-Tet-A-S10 + B-S20 93 > 95 apCC-Tet-A-S10 + B-RRXS20 80 75 apCC-Tet-A-S17 + B-RRXS13 84 72 apCC-Tet-A-S17 + B-RRXS20 ...

[2] = even at 100 μM; cited from earlier work
[3] = CD spectroscopy, helicity at 5 °C; type: physicochemical; conditions: PBS pH 7.4, 10 μM individual peptide
Experimental: (§1) CD spectra and thermal denaturation curves were obtained using a JASCO J810 or 815 spectropolarimeter fitted with a Peltier temperature controller. CD spectra (260 to 190 nm, with 1 nm step size, 100 nm.min^–1 scanning speed, 1 nm bandwidth and 1 s response time) were measured in PBS (137 mM NaCl, 2.7 mM KCl, and 10 mM phosphate buffer, pH 7.4) at 5 °C in quartz cuvettes. Thermal denaturation experiments were performed using 10 μM individual peptide concentration in a 5 mm cuvette. For thermal denaturation experiments, the CD signal at 222 nm was recorded at 1 °C intervals upon heating from 5 to 95 °C at a rate of 40 or 60 °C/h (1 nm interval, 1 nm bandwidth, 16 s response time). Data was buffer subtracted, and then normalized for peptide concentration, number of amide bonds present, and cuvette path length to give the mean residue ellipticity (MRE). Midpoints of thermal denaturation were calculated using the second derivative of the corresponding thermal denaturation curve. Fraction helix (%) was calculated using the following equation (where MREcoil = 640 – 45T; T, temperature (°C); n, number of amide bonds in sample including C-terminal amide):[68] [drawing 2]

[4] = Thermal denaturation monitored by CD (MRE222), midpoint TM; type: physicochemical; conditions: for TM (°C), midpoint of thermal unfolding: CD at 222 nm, 5 to 95 °C, PBS pH 7.4, 10 μM individual peptide; for folding and thermal stability by CD, in words: PBS pH 7.4, 10 µM individual peptide
Experimental: as §1

[5] = target: CC-Tet-A-S14; assay: Isothermal titration calorimetry (ITC) of CC-Tet-B-RRXS14 into CC-Tet-A-S14; type: binding; conditions: 200 μM CC-Tet-B-RRXS14 into 20 μM CC-Tet-A-S14, PBS, 37 °C, heterodimer model, global fit n = 3, read-out: observable KD (concentration at which the complex is half folded)
Experimental: To model the disassembly of the A2B2 complex into the unfolded peptides A and B, we needed to determine the dissociation constant (KD) and use this to estimate the forward and reverse rate constants, koff and kon (Figure 5). To do this, we used isothermal titration calorimetry (ITC), titrating CC-Tet-B-RRXS14 into 20 μM CC-Tet-A-S14 at 37 °C, and the heat released upon binding was measured. […] We contend that this sub-μM KD—which is consistent with our CD measurements (Figure S30)—is close to ideal for use in synthetic biology systems in cells and in vitro, as functioning at μM concentrations leaves the system poised in a folded state, but close to unfolding, rendering it receptive to phosphorylation-induced switching.
Peptides were dissolved in PBS buffer to a concentration around 1 mM and a volume of 1 mL. Samples were then individually dialyzed into 1.5 L of PBS with gentle stirring overnight using a Mini Dialysis Kit (Cyvita) with a 1 kDa membrane cut off. Sample concentration was subsequently remeasured to account for changes in volume because of diffusion during dialysis. […]
To analyze the data, NITPIC, SEDPHAT, and GUSSI were used.[72]−[74] […] Following this, experiments were analyzed using SEDPHAT, which allowed correction of concentration deviations and outlier injection exclusion, after which data was fitted to a heterodimer model (as no heterotetramer model was available). […]

[6] = Sedimentation-velocity analytical ultracentrifugation; type: physicochemical; conditions: PBS pH 7.4, 20 °C, 70 μM of each peptide for mixtures
Experimental: Sedimentation-velocity (SV) experiments were conducted at 20 °C in a Beckman-Optima XL-I analytical ultracentrifuge using an An-60 Ti rotor. Samples were prepared in PBS at 140 μM total peptide concentration. Samples were centrifuged at a speed of 50,000 or 60,000 rpm. The partial specific volume (v̅) for each peptide was calculated and data sets were fitted to a single, ideal species model using SEDFIT. Sedimentation-equilibrium (SE) experiments were conducted at 20 °C in a Beckman-Optima XL-I analytical ultracentrifuge using an An-50 Ti rotor. Samples were prepared in PBS at 70 μM total peptide concentration. Samples were centrifuged at a range of speeds from 18,000–39,000 rpm with defined intervals, and 8 h between subsequent scans. Data sets were analyzed using SEDPHAT.

[7] = target: T1, CC-Tet-A-S14 (N-terminal acetyl; C-terminal amide); assay: ITC; 200 μM CC-Tet-B-RRXS14 injected into 20 μM CC-Tet-A-S14, 37 °C, PBS; fitted to a heterodimer model, global fit of three experiments; observable (apparent) KD; conditions: both partners purified
T1 chain: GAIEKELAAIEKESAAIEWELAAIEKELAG

[8] = target: T1, CC-Tet-A-S14; assay: kinetic model fitted to the CD phosphorylation time course; ordinary differential equations (Berkeley Madonna); koff and kon optimised with K_D(T) held at 3.18 × 10^-19 M^3; tetramer A2B2 to unfolded peptides A and B; 37 °C, 10 μM of each peptide; conditions: both partners purified
[9] = target: T2, apCC-Tet-A-S17 (N-terminal acetyl; C-terminal amide); assay: circular dichroism (Job plot); fraction helix at different ratios of the two peptides, total peptide concentration 20 μM, PBS pH 7.4; conditions: both partners purified
T2 chain: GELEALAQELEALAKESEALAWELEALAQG

| Molecule | Helicity at 5 °C (%) [3] [%] | TM (°C), midpoint of thermal unfolding [4] [°C] | other results |
| --- | --- | --- | --- |
| Ac-G AIEK ELAAIEK ELAAIEW ELAAIEK ELA G-NH2 [CC-Tet-A, acidic peptide of the previously published parallel heterotetramer CC-Tet-A2B2] | – | – | TM (°C), midpoint of thermal unfolding [1]: < 20 °C; self-association of individual peptide [2]: do not self-associate |
| Ac-G AIEK ELAAIEK ELAAIEW ESAAIEK ELA G-NH2 [CC-Tet-A-S21, CC-Tet-A variant with Ser at position 21] | 25 | < 20 | – |
| Ac-G AIEK ELAAIEK ESAAIEW ELAAIEK ELA G-NH2 [CC-Tet-A-S14, CC-Tet-A variant with Ser at position 14] | 23 | < 20 | – |
| Ac-G AIEK ESAAIEK ELAAIEW ELAAIEK ELA G-NH2 [CC-Tet-A-S7, CC-Tet-A variant with Ser at position 7] | 29 | < 20 | – |
| Ac-G AIKQ KLAAIKQ KLAAIKW KLAAIKQ KLA G-NH2 [CC-Tet-B, basic peptide of the previously published parallel heterotetramer CC-Tet-A2B2] | – | – | TM (°C), midpoint of thermal unfolding [1]: < 20 °C; self-association of individual peptide [2]: do not self-associate |
| Ac-G AIKQ KLAAIRR KSAAIKW KLAAIKQ KLA G-NH2 [CC-Tet-B-RRXS14, basic parallel peptide with PKA site R-R-X-S, Ser at position 14] | 26 | < 20 | Kd [5]: 542 nM |
| Ac-G ELEALAQ ELEALAK ELEALAW ELEALAQ G-NH2 [apCC-Tet-A1, initial acidic antiparallel design] | – | – | folding and thermal stability by CD, in words [4]: stably folded; oligomeric state from SV AUC (x monomer mass) [6]: 4.5 x monomer mass |
| Ac-G ELEALAQ ELEALAK ESEALAW ELEALAQ G-NH2 [apCC-Tet-A-S17, acidic antiparallel peptide with Ser at position 17] | 42 | < 20 | – |
| Ac-G ELEALAQ ESEALAK ELEALAW ELEALAQ G-NH2 [apCC-Tet-A-S10, acidic antiparallel peptide with Ser at position 10] | 48 | < 20 | – |
| Ac-G KLKALAQ KLKALAK KLKALAW KLKALAQ G-NH2 [apCC-Tet-B1, initial basic antiparallel design] | – | – | folding and thermal stability by CD, in words [4]: stably folded; oligomeric state from SV AUC (x monomer mass) [6]: 5.2 x monomer mass |
| Ac-G KLKALAQ KLKALAK KLKASAW KLKALAQ G-NH2 [apCC-Tet-B-S20, basic antiparallel peptide with Ser at position 20] | 40 | < 20 | – |
| Ac-G KLKALAQ KLKALAK KRRASAW KLKALAQ G-NH2 [apCC-Tet-B-RRXS20, basic antiparallel peptide with PKA site, Ser at position 20] | 38 | < 20 | – |
| Ac-G KLKALAQ KRRASAK KLKALAW KLKALAQ G-NH2 [apCC-Tet-B-RRXS13, basic antiparallel peptide with PKA site, Ser at position 13] | 39 | < 20 | – |
| Ac-GAIKQKLAAIRRKSAAIKWKLAAIKQKLAG-NH2 [CC-Tet-B-RRXS14] | – | – | Kd [7]: 542 nM; stoichiometry N [7]: ~1; koff [8]: 0.0038 s⁻¹; kon [8]: 229000 M⁻¹ s⁻¹ |
| Ac-GKLKALAQKLKALAKKLKASAWKLKALAQG-NH2 [apCC-Tet-B-S20] | – | – | stoichiometry N [9]: 1 |
